Laboratory results as given in patent publication US10077290B2, “Stabilized antiviral fusion helices” (priority 2011, dated 2018).
“Also recorded” adds a separate entry of the source. Bridges are numbered along the chain shown (N, C = ends). Where no end group is shown, it is not given here. [ ]: non-standard residue; d: D form. R8 = C=CCCCCCC[C@@](C)(N)C(=O)O; S5 = C=CCCC[C@](C)(N)C(=O)O

Assays:
[1] = system: RSV 2-20; experiment: Infection of A549 cells at 0.1 MOI, Hep-2 plaque assay titers: RSV 2-20; assay type: cell-based, Respiratory Syncytial Virus (RSV); conditions: 5 μM peptide
Procedure: (§1) In this study A549 cells were plated in a 24 well plate at 30,000 cells/well. The following day, the cells were treated with 5 μM of the indicated stapled SAHF peptide or volume-equivalent DMSO vehicle, followed by infection with RSV-A2, RSV 2-20, or RSV-rA2Line19F within 30 minutes at 0.1 MOI. The supernatant was collected 24 h post infection, and applied to Hep-2 cells that were plated the day prior on a 24 well plate at 60,000 cells/well. Plaque assays were performed on Hep-2 cells using the collected supernatant and titers determined at 5 days post infection of Hep-2 cells. The results of this analysis are shown in FIGS. 15A, 15B and 15C in which titers are shown as pfu/ml and the values represent the mean+/−SEM for two independent experiments (***p<0.001; ****p<0.0001).

[2] = system: RSV-A2; experiment: RSV-A2 lung infection of BALB/c mice after prophylactic intranasal peptide; assay type: in vivo
Procedure: One hour post treatment, three groups of mice were inoculated with a single dose of RSV-A2 at 1×10^6 pfu/mouse. Peptide dosing and viral inoculation was repeated 16 hours post-infection. The fourth group was treated with volume-equivalent vehicle and mock-infected. Two mice from each group were sacrificed 4 days after the second infection and left lung lobes harvested after 1% paraformaldehyde perfusion, followed by cryopreservation in OCT. Sections (5 μm) were treated with 1:1000 dilution of rabbit anti-RSV polyclonal antibody (Millipore) overnight followed by anti-rabbit antibody conjugated to Alexa Fluor 555 (1:400) (red) (Molecular Probes) for 1 h. Sections were washed and mounted with medium containing DAPI (blue) and viewed with an Olympus fluorescent microscope (FIG. 17A; original magnification 20×). Image J analysis was performed on the acquired images and the percentage RSV-positive cells (red) of total DAPI-positive cells (blue) determined from 8 images (4 sections) per mice (FIG. 17B; .error bars represent mean+/−SEM; *, p<0.0001). Four days after the second infection, bronchoalveolar lavage (BAL) was performed on one mouse from each group and BAL supernatant used to determine the viral titers by plaque assay on Hep-2 cells (FIG. 17C; error bars represent mean+/−SEM of plaques counted per in vivo specimen; *, p<0.05). Also at four days after the second infection, cranial and caudal lobes of the right lung from two mice per group were snap frozen on dry ice. A lung homogenate was generated from the cranial lobe and supernatant subjected to viral titer determination (log 10 pfu/ml) (FIG. 17D; error bars represent mean+/−SEM; *, p<0.05). Total RNA was isolated from the caudal lobe of the right lung and quatitative RT-PCR was performed for the RSV-N gene. The results of this analysis are presented in FIG. 17E in which the bar graphs represent the RSV-N gene expression normalized to the mock-infected tissue.

[3] = system: RSV-A2; experiment: Infection of A549 cells at 0.1 MOI, Hep-2 plaque assay titers: RSV-A2; assay type: cell-based, Respiratory Syncytial Virus (RSV); conditions: 5 μM peptide
Procedure: as §1

[4] = system: RSV-rA2Line19F; experiment: Infection of A549 cells at 0.1 MOI, Hep-2 plaque assay titers: RSV-rA2Line19F; assay type: cell-based, Respiratory Syncytial Virus (RSV); conditions: 5 μM peptide
Procedure: as §1

[5] = system: RgRSV; experiment: Intranasal RgRSV infection of BALB/c mice after intranasal peptide; assay type: in vivo
Procedure: One hour post treatment, three groups of mice were inoculated with a single dose of RgRSV at 1×10^6 pfu/mouse, with the fourth group receiving a mock inoculation. Mice were sacrificed at 24 hours post infection and the noses harvested, sectioned, stained with DAPI and imaged with an Olympus fluorescent microscope (FIG. 16A; original magnification 20×). Image J analysis was performed on the acquired images (FIG. 16B) and average GFP positive (green) and DAPI positive (blue) cells were calculated from eight images (4 sections) per mouse (bars represent percent GFP positive of total DAPI-positive cells present in the images and error bars represent mean+/−SEM. *, p<0.001). FIG. 16C depicts the results of hematoxylin and eosin staining of the nose sections (original magnification 20×, insets 100×) In FIG. 16C black arrows highlight thickened mucosa.

[6] = system: RSV-A2; experiment: RSV-A2 infection of A549 cells at 1 MOI, Hep-2 plaque assay titers; assay type: cell-based, Respiratory Syncytial Virus (RSV); conditions: 5 μM peptide
Procedure: In this study A549 cells were plated in a 24 well plate at 30,000 cells/well. The following day, the cells were treated with 5 μM of the indicated stapled SAHF peptide or volume-equivalent DMSO vehicle, followed by RSV-A2 infection at 1 MOI. The cells were infected for 2 h, and the infection medium replaced with 400 μl of DMEM containing 5% FBS and 5 μM of the indicated stapled SAHF peptide. Cells were harvested along with the supernantant 24 h post infection, vortexed for 10 sec, and the supernatant collected, leaving the cell pellet behind. Hep-2 cells were plated on a 24 well plate at 60,000 cells/well the day before use. Plaque assay was performed on Hep-2 cells using the collected supernatant and titers determined at 5 days post infection of Hep-2 cells. The results of this analysis are shown in FIG. 14 in which titers are shown as log 10 pfu/ml and the values represent the mean+/−SEM for two independent experiments (***p<0.001; ****p<0.0001).

[7] = Circular dichroism (CD) alpha-helicity; assay type: physicochemical; conditions: aqueous solution (pH 7, 35° C.)
Procedure: Compounds are dissolved in an aqueous solution (e.g. 5 mM potassium phosphate solution at pH 7, or distilled H2O, to concentrations of 25-50 μM). Circular dichroism (CD) spectra are obtained on a spectropolarimeter (e.g., Jasco J-710, Aviv) using standard measurement parameters (e.g. temperature, 20° C.; wavelength, 190-260 nm; step resolution, 0.5 nm; speed, 20 nm/sec; accumulations, 10; response, 1 sec; bandwidth, 1 nm; path length, 0.1 cm). The α-helical content of each peptide is calculated by dividing the mean residue ellipticity by the reported value for a model helical decapeptide (Yang et al., Methods Enzymol. 130:208 (1986)).
To document secondary structure improvements of hydrocarbon-stapled peptides, circular dichroism (CD) spectra was recorded and analyzed on a Model 410 Aviv Biomedical spectrometer (Walensky, supra; Bird, supra). […] The target peptide concentration for CD studies is 25-50 μM in 50 mM potassium phosphate (pH 7.5) or Milli-Q deionized water, and exact concentrations are confirmed by quantitative AAA of two CD sample dilutions. […] After conversion to mean residue ellipticity, percent α-helicity can be calculated using the equation, % helicity=100×[θ]222/max[θ]222, where max[θ]222=−40,000×[1−(2.5/number of amino acid residues)]. […]

## FD8SISQVNXKINQSLAFI8KSDELLXNVNAGKST (FDXSISQVNXKINQSLAFIXKSDELLXNVNAGKST; two hydrocarbon staples; MOD_RES (3)..(3) Any amino acid; (3)..(10) Crosslink between residues; MOD_RES (10)..(10) Any amino acid; MOD_RES (20)..(20) Any amino acid; (20)..(27) Crosslink between residues; MOD_RES (27)..(27) Any amino acid) [SAHF-H, J]
[1]
  viral infection by RSV 2-20 (titers): prevents viral infection
[2]; 125 μM intranasally, dosing and inoculation repeated at 16 hours, 4 days after second infection
  RSV-A2 lung infection, by each measure (RSV-positive cells, BAL and lung homogenate titers, RSV-N gene): inhibited RSV infection; also recorded: inhibits RSV-A2 lung infection
[3]
  viral infection by RSV-A2 (titers): prevents viral infection
[4]
  viral infection by RSV-rA2 Line 19F (titers): prevents viral infection
[5]; 125 μM intranasally one hour before RgRSV, 24 hours post infection
  intranasal RgRSV infection (percent GFP positive cells in nose sections): blocks intranasal RgRSV infection
[5]; RgRSV-infected, 125 μM intranasally
  inflammation in nose sections (hematoxylin and eosin staining): comparatively decreased inflammatory cells
[6]
  RSV-A2 infection (viral titers): inhibit RSV-A2 infection of A549 cells

## FDA8ISQVNEXINQSLAFI8KSDELLXNVNAGKST (Ac-FDA[R8]ISQVNE[S5]INQSLAFI[R8]KSDELL[S5]NVNAGKST; staple 4-11, 20-27) [SAHF-I, J]
[6]
  RSV-A2 infection (viral titers): inhibit RSV-A2 infection of A549 cells

## FDASISQVNEKINQSLAFIRKSDELLHNVNAGKST [RSV HR2 (488-522)WT, reference compound]
[2]; caudal lobe of right lung
  RSV-N gene expression in lung (quantitative RT-PCR): no observed effect
[7]
  percent α-helicity: ~23%
